Paper PMC5630639 (Scientific Reports, 2017)

What was measured:
A549 cells = assay: CCK-8 proliferation assay, A549; assay type: cell-based, human; details: 48 h, CCK-8, mean ± SD
Method: (§1) All synthesized β-lactam-azide derivatives were evaluated for their antiproliferative activity against three cancer cell lines (MGC-803, MCF-7, A549) using CCK-8 proliferation assay. The well-known anticancer drug CA-4P was used as a control[36],[37].
(§2) MGC-803 cell line was obtained from the Chinese Academy of Sciences (Shanghai, China). MCF-7 and A549 were from the National Cell Center, China. MGC-803 cells were cultured in DMEM culture medium (DMEM, Biological Industries, Kibbutz Beit Haemek, Israel). A549 and MCF-7 cells were cultured in 1640 medium (1640, Biological Industries, Kibbutz Beit Haemek, Israel). All medium were supplemented with 10% fetal bovine serum, 100 U/ml penicillin (North China Pharmaceutical group Co.), and 100 µg/ml streptomycin (North China Pharmaceutical group Co.). All cells were cultured at 37 °C in a humidified incubator containing 5% CO2.
(§3) Synthesized analogues used in the study were dissolved in 100% cell culture grade DMSO and the final concentration of DMSO as <0.1% for testing on cancer cell lines. Cytotoxicity assays were performed on the human gastric carcinoma cell line MGC-803, the human mammary carcinoma cell line MCF-7, the human lung carcinoma cell line A549. Cells (3500–5000/well) were seeded into 96-well plates in 100 µL of culture medium. The cells were treated in triplicate with a gradient concentration of testing compounds and incubated at 37 °C, 5% CO2 for 48 h. For all cell lines, CCK-8 assay was performed to measure cytotoxic effects. The absorbance was measured using a microplate reader (BioTek Instrument, Inc. Vermont, USA) with a test wavelength of 450 nm. The absorbance levels were corrected against untreated control absorbance values. All experiments were performed in triplicate and SPSS17.0 was used for data analysis to obtain IC50 values.

MCF-7 cells = assay: CCK-8 proliferation assay, MCF-7; assay type: cell-based, human; details: 48 h, CCK-8, mean ± SD
Method: as §1, §2, §3

MGC-803 cells = assay: CCK-8 proliferation assay, MGC-803; assay type: cell-based, human; details: for IC50: 48 h, CCK-8, mean ± SD
Method: as §1, §2, §3

MGC-803 xenograft = MGC-803 xenograft model in nude mice; assay type: in vivo, BALB/c nude mice; details: 100 mg/kg, intragastric daily
Method: To evaluate the potential antitumor effects of 28 in vivo, a MGC-803 xenograft model were established in nude mice by subcutaneously injecting MGC-803 cells at its logarithmic phase into the right flank of mice[56]. Tumor bearing mice were then randomly assigned to five groups (control, 100 mg/kg CA-4P, 25, 50, 100 mg/kg 28) with 10 mice per group. Then, the mice were gavaged with saline (control), CA-4P and different concentrations of 28 in saline solution daily. […] At the end of the observation period, mean tumor volumes of control, CA-4P, 25, 50, and 100 mg/kg 28 groups were 1665.98 ± 568.36 mm^3, 642.61 ± 449.92 mm^3, 788.18 ± 435.92 mm^3, 1125.93 ± 668.25 mm^3 and 1273.88 ± 513.69 mm^3, respectively. […] The antitumor activity of 28 in vivo was similar to that of CA-4P.
Animals were treated according to protocols established by the ethics committee of Zhengzhou University and the in vivo experiments were carried out in accordance with the approved guidelines and approved by the ethics committee of Zhengzhou University. BALB/c nude mice (18 g, aged 4–5 weeks) were purchased from Human SJA Laboratory Animal Co. Ltd. (Hunan, China). Mice were subcutaneously implanted with MGC-803 cells (5 × 10^6 cells per mouse) on the right flank of nude mice. Once tumor volumes reached to approximately 100 mm^3, the mice were randomly divided into corresponding saline, CA-4P (100 mg/kg), 28 (100 mg/kg), 28 (50 mg/kg) and 28 (25 mg/kg) treatment groups (n = 10 mice for each group). The treatment groups received intragastric administration of 28 and CA-4P per day for a period of 21 days. Then, the mice were euthanized and tumors isolated and weighed. Their body weights were measured and tumor sizes determined by vernier caliper measurement every other day.

Molecule	IC50 (A549 cells; Homo sapiens, A549) [µM]	IC50 (MCF-7 cells; Homo sapiens, MCF7) [µM]	IC50 (MGC-803 cells; Homo sapiens, MGC-803) [nM]	other results
COc1ccc(N2C(=O)[C@H](c3ccc(Cl)cc3)[C@H]2c2ccc(N=[N+]=[N-])cc2)cc1 (relative stereo) [Compound 14, trans-4-(4-azidophenyl)-3-(4-chlorophenyl)-1-(4-methoxyphenyl)azetidin-2-one]	> 20	> 20	> 20000	melting point: 147 to 149 °C
COc1ccc(N2C(=O)[C@@H](c3ccccc3)[C@@H]2c2ccc(N=[N+]=[N-])cc2)cc1 (relative stereo) [Compound 15, trans-4-(4-azidophenyl)-1-(4-methoxyphenyl)-3-phenylazetidin-2-one]	> 20	> 20	> 20000	melting point: 114 to 116 °C
COc1ccc(N2C(=O)[C@H](c3ccc(F)cc3)[C@H]2c2cccc(N=[N+]=[N-])c2)c(OC)c1 (relative stereo) [Compound 22, trans-4-(3-azidophenyl)-1-(2,4-dimethoxyphenyl)-3-(4-fluorophenyl)azetidin-2-one]	> 20	> 20	> 20000	–
COc1cc(N2C(=O)[C@@H](c3ccccc3)[C@@H]2c2cccc(N=[N+]=[N-])c2)cc(OC)c1OC (relative stereo) [Compound 25, trans-4-(3-azidophenyl)-3-phenyl-1-(3,4,5-trimethoxyphenyl)azetidin-2-one]	2.13 ± 0.39	0.805 ± 0.176	392 ± 28	melting point: 128 to 129 °C
COc1ccc([C@H]2C(=O)N(c3cc(OC)c(OC)c(OC)c3)[C@@H]2c2ccc(-n3cc(CSC(=S)N4CCCC4)nn3)cc2)cc1 (relative stereo) [Compound 31, (1-(4-(trans-3-(4-methoxyphenyl)-4-oxo-1-(3,4,5-trimethoxyphenyl)azetidin-2-yl)phenyl)-1H-1,2,3-triazol-4-yl)methylpyrrolidine-1-carbodithioate]	> 20	> 20	> 20000	–
CCN1CCN(C(=S)SCc2cn(-c3ccc([C@@H]4[C@@H](c5ccccc5)C(=O)N4c4cc(OC)c(OC)c(OC)c4)cc3)nn2)CC1 (relative stereo) [Compound 32, (1-(4-(trans-4-oxo-3-phenyl-1-(3,4,5-trimethoxyphenyl)azetidin-2-yl)phenyl)-1H-1,2,3-triazol-4-yl)methyl-4-ethylpiperazine-1-carbodithioate]	> 20	> 20	> 20000	–
COc1ccc(/C=C\c2cc(OC)c(OC)c(OC)c2)cc1OP(=O)(O)O [CA-4P, reference compound]	–	–	–	IC50 (A549 cells): 0.033 ± 0.007 µM; IC50 (MCF-7 cells): 0.023 ± 0.002 µM; inhibitory rate (tumor weight) (MGC-803 xenograft; 21 days): 63.27%; average tumor weight (MGC-803 xenograft; 21 days (control 1.23 ± 0.28)): 0.45 ± 0.22 g; mean tumor volume at end of observation period (MGC-803 xenograft; 21 days (control 1665.98 ± 568.36)): 642.61 ± 449.92 mm^3; IC50 (MGC-803 cells): 15 ± 1 nM
COc1cc(N2C(=O)[C@@](c3ccccc3)(S(=O)(=O)C(F)(F)F)[C@H]2c2ccc(N=[N+]=[N-])cc2)cc(OC)c1OC [Compound 35, 4-(4-azidophenyl)-3-phenyl-3-((trifluoromethyl)sulfonyl)-1-(3,4,5-trimethoxyphenyl)azetidin-2-one]	> 20	> 20	> 20000	–
COc1cc(N2C(=O)[C@@](c3ccccc3)(S(=O)(=O)C(F)(F)F)[C@H]2c2cccc(N=[N+]=[N-])c2)cc(OC)c1OC [Compound 36, 4-(3-azidophenyl)-3-phenyl-3-((trifluoromethyl)sulfonyl)-1-(3,4,5-trimethoxyphenyl)azetidin-2-one]	> 20	> 20	> 20000	–
trans-4-phenyl-3-(thiophen-2-yl)-1-(3,4,5-trimethoxyphenyl)azetidin-2-one [Compound 27]	–	–	–	IC50 (A549 cells): > 20 µM; IC50 (MCF-7 cells): > 20 µM; IC50 (MGC-803 cells): > 20000 nM

More lines, main results first:

IC50 (A549 cells; Homo sapiens, A549) [µM]	IC50 (MCF-7 cells; Homo sapiens, MCF7) [µM]	IC50 (MGC-803 cells; Homo sapiens, MGC-803) [nM]	Molecule	other results
> 20	> 20	> 20000	COc1ccc(N2C(=O)[C@H](c3ccccc3)[C@H]2c2ccc(N=[N+]=[N-])cc2)cc1OC (relative stereo) [Compound 12, trans-4-(4-azidophenyl)-1-(3,4-dimethoxyphenyl)-3-phenylazetidin-2-one]	–
> 20	> 20	> 20000	COc1cccc([C@H]2C(=O)N(c3ccc(OC)c(OC)c3)[C@@H]2c2ccc(N=[N+]=[N-])cc2)c1 (relative stereo) [Compound 16, trans-4-(4-azidophenyl)-1-(3,4-dimethoxyphenyl)-3-(3-methoxyphenyl)azetidin-2-one]	–
3.22 ± 0.349	1.07 ± 0.024	590 ± 14	COc1ccc([C@H]2C(=O)N(c3cc(OC)c(OC)c(OC)c3)[C@@H]2c2ccc(N=[N+]=[N-])cc2)cc1 (relative stereo) [Compound 17, trans-4-(4-azidophenyl)-3-(4-methoxyphenyl)-1-(3,4,5-trimethoxyphenyl)azetidin-2-one]	–
1.74 ± 0.145	0.338 ± 0.004	171 ± 51	COc1cc(N2C(=O)[C@H](c3ccccc3)[C@H]2c2ccc(N=[N+]=[N-])cc2)cc(OC)c1OC (relative stereo) [Compound 18, trans-4-(4-azidophenyl)-3-phenyl-1-(3,4,5-trimethoxyphenyl)azetidin-2-one]	melting point: 66 to 68 °C
18.1 ± 2.31	2.88 ± 0.489	1400 ± 133	COc1cccc([C@H]2C(=O)N(c3cc(OC)c(OC)c(OC)c3)[C@@H]2c2ccc(N=[N+]=[N-])cc2)c1 (relative stereo) [Compound 19, trans-4-(4-azidophenyl)-3-(3-methoxyphenyl)-1-(3,4,5-trimethoxyphenyl)azetidin-2-one]	activity loss against the growth of MGC-803 cells (MGC-803 cells; hydrogen atom (18) replaced with methoxy group (19)): over 8 fold
> 20	> 20	> 20000	COc1ccc([C@H]2C(=O)N(c3ccc(OC)cc3OC)[C@@H]2c2cccc(N=[N+]=[N-])c2)cc1 (relative stereo) [Compound 21, trans-4-(3-azidophenyl)-1-(2,4-dimethoxyphenyl)-3-(4-methoxyphenyl)azetidin-2-one]	–
18.1 ± 1.71	2.88 ± 0.494	1400 ± 127	COc1cccc([C@H]2C(=O)N(c3cc(OC)c(OC)c(OC)c3)[C@@H]2c2cccc(N=[N+]=[N-])c2)c1 (relative stereo) [Compound 23, trans-4-(3-azidophenyl)-3-(3-methoxyphenyl)-1-(3,4,5-trimethoxyphenyl)azetidin-2-one]	–
5.76 ± 0.887	4 ± 0.922	840 ± 630	COc1cc(N2C(=O)[C@H](c3ccc(F)cc3)[C@H]2c2cccc(N=[N+]=[N-])c2)cc(OC)c1OC (relative stereo) [Compound 24, trans-4-(3-azidophenyl)-3-(4-fluorophenyl)-1-(3,4,5-trimethoxyphenyl)azetidin-2-one]	–
> 20	> 20	> 20000	COc1ccc([C@H]2C(=O)N(c3ccc(OC)c(OC)c3)[C@@H]2c2ccc(N=[N+]=[N-])cc2)cc1 [Compound 13, trans-4-(4-azidophenyl)-1-(3,4-dimethoxyphenyl)-3-(4-methoxyphenyl)azetidin-2-one]	–
